Test results published in patent US20250332173A1, “COMPOUNDS AND METHODS FOR MODULATING NUCLEIC ACID SPLICING” (REMIX THERAPEUTICS INC., priority 2021, published 2025).
Read-outs that look alike come from different tables or passages of the source.

How the values were obtained:
Format in all cases: cell-based, human
[1] = tested on: HTT mRNA; assay: RT-qPCR splicing assay, HTT canonical junction (CJ) and alternative junction (AJ) mRNA; conditions: Homo sapiens; for AC50: increase in HTT alternative junction (AJ) mRNA, read-out: HTT AJ AC50
Outline: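 Splicing switches were read by TaqMan RT-qPCR on lysates, quantifying exon-exon junctions of the canonical and alternative-exon isoforms. Lysates came from K562 (GAPDH/GUSB reference) or A673 (PPIA reference) cells exposed 24 h to compound in 11 threefold steps from 10 uM, with DMSO ≤0.25%.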

[2] = tested on: SMN2 mRNA; assay: RT-qPCR splicing assay, SMN2 canonical junction (CJ) mRNA; conditions: Homo sapiens; Table 5 panel; canonical junction qPCR; compound concentration having 50% response in CJ decrease; read-out: SMN2 IC50 (decrease in CJ mRNA levels)
Outline: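 Canonical exon-exon junction transcript levels measured by one-step RT-qPCR of cell lysates, normalized to a housekeeping gene (GAPDH, GUSB or PPIA). Cells used were A673 or K562, exposed for 24 h to compound in 11-point, 3-fold series from 10 uM, with final DMSO at or below 0.25%.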

[3] = tested on: Target C; assay: HiBiT protein abundance assay, Target C (Promega Nano-Glo HiBiT Lytic Detection System, knock-in K562 cell line); conditions: Homo sapiens, K562, 24 h, HiBiT K562 cell line, 24 hours, top dose 10 μM; read-out: Effect on protein abundance, Target C (IC50 category)
Outline: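 Protein abundance was read by Nano-Glo HiBiT lytic luminescence after 24 h compound exposure (10-point, threefold series from 10 μM final) of HiBiT knock-in K562 cells. Parental K562 served as baseline; the 50%-abundance concentration was interpolated from a four-parameter logistic fit.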

[4] = decrease in HTT canonical junction (CJ) mRNA, RT-qPCR, read-out: HTT CJ IC50
[5] = Table 5 panel, canonical junction qPCR, compound concentration having 50% response in CJ decrease, read-out: HTT IC50 (decrease in CJ mRNA levels)

Cc1cn2cc(-c3cc(O)c4c(=O)n(C5CCNCC5)cnc4c3)cc(F)c2n1 [Compound 587, 7-{8-fluoro-2-methylimidazo[1,2-a]pyridin-6-yl}-5-hydroxy-3-(piperidin-4-yl)quinazolin-4-one]
IC50 [1, 4]: 0.1 to 1 µM | AC50 ([1]; RT-qPCR): 0.1 to 1 µM | IC50 [1, 5]: 0.1 to 1 µM | IC50 [2]: < 0.1 µM | IC50 [3]: 0.1 to 1 µM

Cn1cc2c(=O)n(-c3ccc4c(=O)n(C5CCNCC5)ccc4c3)ccc2n1 [Compound 530, 6-{2-methyl-4-oxopyrazolo[4,3-c]pyridin-5-yl}-2-(piperidin-4-yl)isoquinolin-1-one]
IC50 [1, 4]: > 10 µM | AC50 ([1]; RT-qPCR): > 10 µM | IC50 [1, 5]: > 10 µM | IC50 [2]: > 10 µM | IC50 [3]: > 10 µM

Cc1cn2cc(-c3cc4ncn(C5CCNCC5)c(=O)c4cc3F)cc(F)c2n1 [Compound 586, 6-fluoro-7-{8-fluoro-2-methylimidazo[1,2-a]pyridin-6-yl}-3-(piperidin-4-yl)quinazolin-4-one]
IC50 [1, 4]: 1 to 10 µM | AC50 ([1]; RT-qPCR): 0.1 to 1 µM | IC50 [1, 5]: 0.1 to 1 µM | IC50 [2]: < 0.1 µM | IC50 [3]: 1 to 10 µM

Cc1cn2nc(-c3cc(F)c4c(=O)n(C5CCNCC5)ncc4c3)cc(C)c2n1 [Compound 540]
IC50 [1, 4]: < 0.1 µM | AC50 ([1]; RT-qPCR): < 0.1 µM | IC50 [1, 5]: < 0.1 µM | IC50 [2]: < 0.1 µM | IC50 [3]: < 0.1 µM

Cn1cc2cc(-c3ncc4c(=O)n(C5CCNCC5)ccc4n3)c(O)c(F)c2n1 [Compound 1123]
IC50 [1, 4]: 0.1 to 1 µM | AC50 ([1]; RT-qPCR): < 0.1 µM | IC50 [1, 5]: < 0.1 µM | IC50 [2]: < 0.1 µM | IC50 [3]: < 0.1 µM

Cc1cn2nc(-c3ccc4c(=O)n(C5CCNCC5)cnc4c3)cc(C)c2n1 [Compound 181]
IC50 [1, 4]: 0.1 to 1 µM | AC50 ([1]; RT-qPCR): 0.1 to 1 µM | IC50 [1, 5]: 0.1 to 1 µM | IC50 [2]: < 0.1 µM | IC50 [3]: < 0.1 µM

Cc1cn2cc(-c3cc(O)c4c(=O)n(C5CCNC6(CC6)C5)ncc4c3)cc(Cl)c2n1 (stereo not drawn) [Compound 557]
IC50 [1, 4]: 0.1 to 1 µM | AC50 ([1]; RT-qPCR): 0.1 to 1 µM | IC50 [1, 5]: 0.1 to 1 µM | IC50 [2]: < 0.1 µM | IC50 [3]: 0.1 to 1 µM

Cc1cn2nc(-c3ccc4c(=O)n(C5CCNCC5)ccc4c3)cc(-n3ccc(=O)cc3)c2n1 [Compound 551, 6-[2-methyl-8-(4-oxo-1-pyridyl)imidazo[1,2-b]pyridazin-6-yl]-2-(4-piperidyl)isoquinolin-1-one]
IC50 [1, 4]: 0.1 to 1 µM | AC50 ([1]; RT-qPCR): 0.1 to 1 µM | IC50 [1, 5]: 0.1 to 1 µM | IC50 [2]: 0.1 to 1 µM | IC50 [3]: 0.1 to 1 µM

Cc1cn2nc(-c3ccc4c(=O)n(C5CCNCC5)ccc4c3)cc(Cc3nnn[nH]3)c2n1 [Compound 536, 6-[2-methyl-8-(1H-tetrazol-5-ylmethyl)imidazo[1,2-b]pyridazin-6-yl]-2-(4-piperidyl) isoquinolin-1-one]
IC50 [1, 4]: > 10 µM | AC50 ([1]; RT-qPCR): > 10 µM | IC50 [1, 5]: > 10 µM | IC50 [2]: 1 to 10 µM | IC50 [3]: > 10 µM

Cc1cc(-c2cc(F)c3c(=O)n(C4CCNC5(CC5)C4)ncc3c2)cc2cn(C)nc12 (stereo not drawn) [Compound 554]
IC50 [1, 4]: 0.1 to 1 µM | AC50 ([1]; RT-qPCR): 0.1 to 1 µM | IC50 [1, 5]: 0.1 to 1 µM | IC50 [2]: < 0.1 µM | IC50 [3]: 0.1 to 1 µM

Cc1cn2nc(-c3ccc4c(=O)n(C5CCNCC5)ccc4c3)cc(CCO)c2n1 [Compound 533, 6-[8-(2-hydroxyethyl)-2-methyl-imidazo[1,2-b]pyridazin-6-yl]-2-(4-piperidyl)isoquinolin-1-one]
IC50 [1, 4]: 0.1 to 1 µM | AC50 ([1]; RT-qPCR): 0.1 to 1 µM | IC50 [1, 5]: 0.1 to 1 µM | IC50 [2]: < 0.1 µM | IC50 [3]: 0.1 to 1 µM

Cc1cn2nc(-c3ccc4c(=O)n(C5CCNCC5)ccc4c3)cc(Cc3nnc[nH]3)c2n1 [Compound 535, 6-[2-methyl-8-(4H-1,2,4-triazol-3-ylmethyl)imidazo[1,2-b]pyridazin-6-yl]-2-(4-piperidyl) isoquinolin-1-one]
IC50 [1, 4]: 1 to 10 µM | AC50 ([1]; RT-qPCR): 1 to 10 µM | IC50 [1, 5]: 1 to 10 µM | IC50 [2]: < 0.1 µM | IC50 [3]: 1 to 10 µM
